Assays:
Assay type in all cases: in vivo
[1] = tested on: barnyardgrass (Echinochloa crusgalli); assay: Test B flooded paddy test, visual plant response rating 0-100; details: 250 g ai/ha, Flood, applied to paddy water, evaluated after 13 days
Procedure: (§1) Plant species in the flooded paddy test selected from barnyardgrass (Echinochloa crusgalli), ducksalad (Heteranthera limosa), rice (Oryza sativa), and sedge, umbrella (small-flower umbrella sedge, Cyperus difformis) were grown to the 2-leaf stage for testing. At time of treatment, test pots were flooded to 3 cm above the soil surface, treated by application of test compounds directly to the paddy water, and then maintained at that water depth for the duration of the test. Treated plants and controls were maintained in a greenhouse for 13 days, after which time all species were compared to controls and visually evaluated. […] A dash (-) response means no test result.

[2] = tested on: sedge, umbrella (small-flower umbrella sedge, Cyperus difformis); assay: as above; details: 250 g ai/ha, Flood, applied to paddy water, evaluated after 13 days
Procedure: as §1

rice (Oryza sativa) = assay: as above; details: 250 g ai/ha, Flood, applied to paddy water, evaluated after 13 days
Procedure: as §1

[3] = tested on: ducksalad (Heteranthera limosa); assay: as above; details: 250 g ai/ha, Flood, applied to paddy water, evaluated after 13 days
Procedure: as §1

[4] = tested on: ragweed (common ragweed, Ambrosia artemisiifolia); assay: Test A postemergence application, visual injury rating 0-100; details: 10 days
Source text: (§2) Seeds of plant species selected from barnyardgrass (Echinochloa crus-galli), blackgrass (Alopecurus myosuroides), corn (Zea mays), foxtail, giant (giant foxtail, Setaria faberi), green foxtail (Setaria viridis), goosegrass (Eleusine indica), kochia (Bassia scoparia), oat, wild (wild oat, Avena fatua), palmer (palmer amaranth, palmer pigweed, Amaranthus palmeri), ragweed (common ragweed, Ambrosia artemisiifolia), ryegrass, Italian (italian ryegrass, Lolium multiflorum), soybean (Glycine max) and wheat (Triticum aestivum) were planted into a blend of loam soil and sand and treated preemergence with a directed soil spray using test chemicals formulated in a non-phytotoxic solvent mixture which included a surfactant.
(§3) At the same time, plants selected from these crops and weed species and also galium (catchweed bedstraw, Galium aparine) and horseweed (Erigeron canadensis) were planted in pots containing the same blend of loam soil and sand and treated with postemergence applications of test chemicals formulated in the same manner. Plants ranged in height from 2 to 10 cm and were in the one- to two-leaf stage for the postemergence treatment. Treated plants and untreated controls were maintained in a greenhouse for 10 days, after which time all treated plants were compared to untreated controls and visually evaluated for injury. Plant response ratings, summarized in Table A, are based on a 0 to 100 scale where 0 is no effect and 100 is complete control. A dash (-) response means no test result.

[5] = tested on: oat, wild (wild oat, Avena fatua); assay: as above; details: 10 days
Source text: as §2, §3

[6] = tested on: ryegrass, Italian (italian ryegrass, Lolium multiflorum); assay: as above; details: 10 days
Source text: as §2, §3

[7] = tested on: barnyardgrass (Echinochloa crus-galli); assay: as above; details: 10 days
Source text: as §2, §3

kochia (Bassia scoparia) [8] = assay: as above; details: 10 days
Source text: as §2, §3

[9] = tested on: wheat (Triticum aestivum); assay: as above; details: 10 days
Source text: as §2, §3

[10] = tested on: palmer (palmer amaranth, palmer pigweed, Amaranthus palmeri); assay: as above; details: 10 days
Source text: as §2, §3

corn (Zea mays) [11] = assay: as above; details: 10 days
Source text: as §2, §3

soybean (Glycine max) [12] = assay: as above; details: 10 days
Source text: as §2, §3

[13] = tested on: horseweed (Erigeron canadensis); assay: as above; details: 10 days
Source text: as §2, §3

[14] = tested on: green foxtail (Setaria viridis); assay: as above; details: 10 days
Source text: as §2, §3

[15] = tested on: blackgrass (Alopecurus myosuroides); assay: as above; details: 10 days
Source text: as §2, §3

[16] = tested on: ragweed (common ragweed, Ambrosia artemisiifolia); assay: Test A preemergence soil spray, visual injury rating 0-100; details: 10 days, 0 = no effect, 100 = complete control
Source text: as §2, §3

[17] = tested on: oat, wild (wild oat, Avena fatua); assay: as above; details: 10 days, 0 = no effect, 100 = complete control
Source text: as §2, §3

[18] = tested on: ryegrass, Italian (italian ryegrass, Lolium multiflorum); assay: as above; details: 10 days, 0 = no effect, 100 = complete control
Source text: as §2, §3

[19] = tested on: barnyardgrass (Echinochloa crus-galli); assay: as above; details: 10 days, 0 = no effect, 100 = complete control
Source text: as §2, §3

kochia (Bassia scoparia) [20] = assay: as above; details: 10 days, 0 = no effect, 100 = complete control
Source text: as §2, §3

[21] = tested on: wheat (Triticum aestivum); assay: as above; details: 10 days, 0 = no effect, 100 = complete control
Source text: as §2, §3

[22] = tested on: palmer (palmer amaranth, palmer pigweed, Amaranthus palmeri); assay: as above; details: 10 days, 0 = no effect, 100 = complete control
Source text: as §2, §3

corn (Zea mays) [23] = assay: as above; details: 10 days, 0 = no effect, 100 = complete control
Source text: as §2, §3

soybean (Glycine max) [24] = assay: as above; details: 10 days, 0 = no effect, 100 = complete control
Source text: as §2, §3

[25] = tested on: green foxtail (Setaria viridis); assay: as above; details: 10 days, 0 = no effect, 100 = complete control
Source text: as §2, §3

[26] = tested on: blackgrass (Alopecurus myosuroides); assay: as above; details: 10 days, 0 = no effect, 100 = complete control
Source text: as §2, §3

[27] = 31 g ai/ha, postemergence, 0 = no effect, 100 = complete control
[28] = Postemergence, 125 g ai/ha, 0 is no effect, 100 is complete control

CC(C)OC(=O)C1CCC(NC(=O)C2(C)CN(c3cc(F)cc(F)c3)C(=O)O2)C1 (centres unmarked) [Compound 12]
0: Plant response rating, Barnyardgrass (0 to 100 scale, 0 is no effect and 100 is complete control) [1] | Plant response rating, Sedge, Umbrella (0 to 100 scale, 0 is no effect and 100 is complete control) [2] | Plant response rating, Rice (0 to 100 scale, 0 is no effect and 100 is complete control) (rice (Oryza sativa)) | Plant response rating, Ducksalad (0 to 100 scale, 0 is no effect and 100 is complete control) [3] | Ragweed plant response rating (0-100) [4, 27] | Ragweed plant response rating (0 to 100 scale) [4, 28] | Amaranth, Palmer plant response rating (0-100) [10, 27] | Horseweed plant response rating (0-100) [13, 27] | Ragweed plant response rating (0-100) ([16]; 31 g ai/ha) | Ragweed plant response rating (0 to 100 scale) ([16]; 125 g ai/ha) | Oat, Wild plant response rating (0-100) ([17]; 31 g ai/ha) | Ryegrass, Italian plant response rating (0-100) ([18]; 31 g ai/ha) | Barnyardgrass plant response rating (0-100) ([19]; 31 g ai/ha) | Amaranth, Palmer plant response rating (0-100) ([22]; 31 g ai/ha) | Amaranth, Palmer plant response rating (0 to 100 scale) ([22]; 125 g ai/ha) | Corn plant response rating (0-100) (corn (Zea mays) [23]; 31 g ai/ha) | Soybean plant response rating (0 to 100 scale) (soybean (Glycine max) [24]; 125 g ai/ha) | Foxtail, Green plant response rating (0-100) ([25]; 31 g ai/ha)
50: Wheat plant response rating (0-100) [9, 27] | Corn plant response rating (0 to 100 scale) (corn (Zea mays) [11]; [28]) | Soybean plant response rating (0 to 100 scale) (soybean (Glycine max) [12]; [28]) | Blackgrass plant response rating (0-100) [15, 27] | Wheat plant response rating (0-100) ([21]; 31 g ai/ha) | Corn plant response rating (0 to 100 scale) (corn (Zea mays) [23]; 125 g ai/ha) | Foxtail, Green plant response rating (0 to 100 scale) ([25]; 125 g ai/ha)
30: Soybean plant response rating (0-100) (soybean (Glycine max) [12]; [27])
10: Barnyardgrass plant response rating (0-100) [7, 27] | Horseweed plant response rating (0 to 100 scale) [13, 28] | Soybean plant response rating (0-100) (soybean (Glycine max) [24]; 31 g ai/ha)
90: Oat, Wild plant response rating (0 to 100 scale) [5, 28] | Oat, Wild plant response rating (0 to 100 scale) ([17]; 125 g ai/ha) | Ryegrass, Italian plant response rating (0 to 100 scale) ([18]; 125 g ai/ha) | Barnyardgrass plant response rating (0 to 100 scale) ([19]; 125 g ai/ha) | Wheat plant response rating (0 to 100 scale) ([21]; 125 g ai/ha)
60: Ryegrass, Italian plant response rating (0-100) [6, 27] | Wheat plant response rating (0 to 100 scale) [9, 28] | Foxtail, Green plant response rating (0 to 100 scale) [14, 28]
80: Oat, Wild plant response rating (0-100) [5, 27] | Ryegrass, Italian plant response rating (0 to 100 scale) [6, 28] | Kochia plant response rating (0 to 100 scale) (kochia (Bassia scoparia) [8]; [28]) | Blackgrass plant response rating (0 to 100 scale) [15, 28] | Blackgrass plant response rating (0 to 100 scale) ([26]; 125 g ai/ha)
100: Barnyardgrass plant response rating (0 to 100 scale) [7, 28]
70: Kochia plant response rating (0 to 100 scale) (kochia (Bassia scoparia) [20]; 125 g ai/ha)
20: Kochia plant response rating (0-100) (kochia (Bassia scoparia) [8]; [27]) | Amaranth, Palmer / Pigweed, Palmer plant response rating (0 to 100 scale) [10, 28] | Corn plant response rating (0-100) (corn (Zea mays) [11]; [27]) | Foxtail, Green plant response rating (0-100) [14, 27] | Kochia plant response rating (0-100) (kochia (Bassia scoparia) [20]; 31 g ai/ha) | Blackgrass plant response rating (0-100) ([26]; 31 g ai/ha)

Source: patent publication US20260285850A1, “SUBSTITUTED OXAZOLIDINONES AND IMIDAZOLINONES AS HERBICIDES” (FMC CORPORATION, priority 2023, published 2026)
